From ChEMBL document CHEMBL1128934, “Nonpeptide glycoprotein IIB/IIIA inhibitors. 12. Potent and orally active centrally constrained thieno[2,3-c]pyridones” (Bioorg Med Chem Lett, 1996)

Organism: Homo sapiens
Assay: Compound was evaluated for inhibition of ex vivo ADP mediated platelet aggregation of human gel filtered platelets
Assay type: functional

IC50 [nM] | Structure (SMILES)
25 | O=C(NCc1ccccc1)N[C@@H](CNC(=O)c1cc2c(s1)CCN(CCC1CCNCC1)C2=O)C(=O)O
25 | O=C(O)CCNC(=O)c1ccc2c(c1)C(=O)N(CCC1CCNCC1)C2
8 | CCCCS(=O)(=O)N[C@@H](CNC(=O)c1cc2c(s1)CCN(CCC1CCNCC1)C2=O)C(=O)O
150 | O=C(O)CCNC(=O)c1cc2c(s1)CCN(CCC1CCNCC1)C2=O
7 | O=C(NC[C@H](NS(=O)(=O)c1ccccc1)C(=O)O)c1cc2c(s1)CCN(CCC1CCNCC1)C2=O
220 | C[C@H](CC(=O)O)NC(=O)c1cc2c(s1)CCN(CCC1CCNCC1)C2=O
13 | O=C(NC[C@H](NS(=O)(=O)c1cccnc1)C(=O)O)c1cc2c(s1)CCN(CCC1CCNCC1)C2=O
33000 | CCCCS(=O)(=O)N[C@@H](CNC(=O)c1csc2c1C(=O)N(CCC1CCNCC1)CC2)C(=O)O
260 | O=C(O)CCCC(=O)c1cc2c(s1)CCN(CCC1CCNCC1)C2=O
